Measurements published in patent US9850283B2, “Macrocyclic inhibitors of the PD-1/PD-L1 and CD80(B7-1)/PD-L1 protein/protein interactions” (BRISTOL-MYERS SQUIBB COMPANY, priority 2013, dated 2017).
Positions of bridges follow the written chain, without caps; N, C: chain ends. Non-standard residues stand in square brackets, D forms with d. Residues, ends and D or L forms follow the SMILES beside them. Bta = N[C@@H](Cc1csc2ccccc12)C(=O)O; cisHyp = O=C(O)[C@@H]1C[C@H](O)CN1; Hyp = O=C(O)[C@@H]1C[C@@H](O)CN1; NMeNle = CCCC[C@H](NC)C(=O)O; NMeA = CN[C@@H](C)C(=O)O; Orn = NCCC[C@H](N)C(=O)O; Dab = NCC[C@H](N)C(=O)O; Dap = NC[C@H](N)C(=O)O

Experiments:
[1] = target: T1, LK35.2-hPD-L1 cells / PE-labeled PD-1-Ig (Homo sapiens, UniProt Q9NZQ7); test: LK35.2-hPD-L1 cell binding high-content screening assay; format: cell-based; settings: cluster symbol; cell line of CBA not given (LK35.2-hPD-L1 or 293T-hPD-L1); read-out: CBA IC50 cluster
T1 construct: expressed in transfected cells; host or cells: LK35.2 mouse B cell line
T1 sequence (Q9NZQ7 19-290): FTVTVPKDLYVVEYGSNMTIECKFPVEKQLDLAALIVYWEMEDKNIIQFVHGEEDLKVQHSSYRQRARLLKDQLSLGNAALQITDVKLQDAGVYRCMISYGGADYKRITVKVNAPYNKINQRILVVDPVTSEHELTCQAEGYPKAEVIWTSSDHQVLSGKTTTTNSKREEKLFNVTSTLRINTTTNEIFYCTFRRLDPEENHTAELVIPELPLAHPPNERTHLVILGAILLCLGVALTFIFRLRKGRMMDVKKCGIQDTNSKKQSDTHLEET
In short: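 Readout: high-content imaging of PE-PD-1-Ig bound to LK35.2-hPD-L1 cells. Cells plated overnight (RPMI/10% FCS); compound + 1 nM PE-PD-1-Ig, 1 h, 37 °C; 3× dPBS wash before imaging.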

[2] = target: T2, Human PD-L1/PD-1 (Homo sapiens, UniProt Q9NZQ7); test: HTRF PD-1-Ig/PD-L1-His binding assay (human PD-L1); settings: cluster symbol; read-out: HTRF IC50 cluster
T2 construct: made in house; host or cells: HEK293T
T2 sequence (Q9NZQ7 with tags, fused parts or gaps): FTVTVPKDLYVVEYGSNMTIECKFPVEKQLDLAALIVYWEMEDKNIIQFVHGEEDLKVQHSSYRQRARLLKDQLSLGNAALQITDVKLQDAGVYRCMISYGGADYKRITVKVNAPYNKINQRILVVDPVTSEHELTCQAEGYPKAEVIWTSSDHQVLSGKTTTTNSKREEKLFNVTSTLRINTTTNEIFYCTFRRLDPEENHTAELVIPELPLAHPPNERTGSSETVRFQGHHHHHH
In short: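 Steps: truncated PD-1-Ig and PD-L1-His fusions are incubated in dPBS containing 0.1% (w/v) BSA and 0.05% (v/v) Tween-20. Detection antibodies are then added (Eu cryptate anti-Ig at 1 nM final, APC anti-His at 20 nM final), and time-resolved FRET is measured.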

Structure (SMILES)	IC50 [1] [nM]	IC50 [2] [nM]
CCCC[C@H]1C(=O)N(C)[C@@H](CCCC)C(=O)N[C@@H](C)C(=O)N[C@H](C(=O)NCC(N)=O)CSCC(=O)N[C@@H](Cc2ccc(O)cc2)C(=O)N2CCC[C@H]2C(=O)N[C@@H](CC(=O)O)C(=O)N2CCC[C@H]2C(=O)N[C@@H](CN)C(=O)N[C@@H](CC(C)C)C(=O)N2C[C@@H](O)C[C@H]2C(=O)N[C@@H](Cc2c[nH]c3ccccc23)C(=O)N[C@@H](CCN)C(=O)N[C@@H](Cc2c[nH]c3ccccc23)C(=O)N1C [Example 1150] ({CH2CO}-YPDP[Dap]L[cisHyp]W[Dab]W[NMeNle][NMeNle]ACG-NH2; thioether N-14)	0.158 to 4.71	0.385 to 6.74
CCCC[C@H]1C(=O)N(C)[C@@H](CCCC)C(=O)N[C@@H](C)C(=O)N[C@H](C(=O)NCC(N)=O)CSCC(=O)N[C@@H](Cc2ccc(O)cc2)C(=O)N2CCC[C@H]2C(=O)N[C@@H](CC(=O)O)C(=O)N2CCC[C@H]2C(=O)N[C@@H](CN)C(=O)N[C@@H](CC(C)C)C(=O)N2C[C@H](O)C[C@H]2C(=O)N[C@@H](Cc2c[nH]c3ccccc23)C(=O)N[C@@H](CO)C(=O)N[C@@H](Cc2c[nH]c3ccccc23)C(=O)N1C [Example 1152] ({CH2CO}-YPDP[Dap]L[Hyp]WSW[NMeNle][NMeNle]ACG-NH2; thioether N-14)	4.78 to 72.9	6.76 to 30.3
CCCC[C@H]1C(=O)N(C)[C@@H](CCCC)C(=O)N[C@@H](C)C(=O)N[C@H](C(=O)NCC(=O)O)CSCC(=O)N[C@@H](Cc2ccc(O)cc2)C(=O)N(C)[C@@H](C)C(=O)N[C@@H](CC(N)=O)C(=O)N2CCC[C@H]2C(=O)N[C@@H](Cc2cnc[nH]2)C(=O)N[C@@H](CC(C)C)C(=O)N[C@@H](CCCN)C(=O)N[C@@H](Cc2c[nH]c3ccccc23)C(=O)N[C@@H](CO)C(=O)N[C@@H](Cc2csc3ccccc23)C(=O)N1C [Example 1153]	4.78 to 72.9	> 30.5
CCCC[C@H]1C(=O)N(C)[C@@H](CCCC)C(=O)N[C@@H](C)C(=O)N[C@H](C(=O)NCC(=O)O)CSCC(=O)N[C@@H](Cc2ccc(O)cc2)C(=O)N(C)[C@@H](C)C(=O)N[C@@H](CC(N)=O)C(=O)N2CCC[C@H]2C(=O)N[C@@H](Cc2cnc[nH]2)C(=O)N[C@@H](CC(C)C)C(=O)N[C@@H](CCCN)C(=O)N[C@@H](Cc2c[nH]c3ccccc23)C(=O)N[C@@H](CO)C(=O)N[C@@H](Cc2c[nH]c3ccccc23)C(=O)N1C [Example 1154]	> 74.3	6.76 to 30.3
CCCC[C@H]1C(=O)N(C)[C@@H](CCCC)C(=O)N[C@@H](CCCNC(=N)N)C(=O)N[C@H](C(=O)NCC(N)=O)CSCC(=O)N[C@@H](Cc2ccc(O)cc2)C(=O)N(C)[C@@H](C)C(=O)N[C@@H](CCN)C(=O)N2CCC[C@H]2C(=O)N[C@@H](C)C(=O)N[C@@H](CCC(=O)O)C(=O)N2C[C@H](O)C[C@H]2C(=O)N[C@@H](Cc2c[nH]c3ccccc23)C(=O)N[C@@H](CO)C(=O)N[C@@H](Cc2c[nH]c3ccccc23)C(=O)N1C [Example 1155] ({CH2CO}-Y[NMeA][Dab]PAE[Hyp]WSW[NMeNle][NMeNle]RCG-NH2; thioether N-14)	4.78 to 72.9	6.76 to 30.3
CCCC[C@H]1C(=O)N(C)[C@@H](CCCC)C(=O)N[C@@H](C)C(=O)N[C@H](C(=O)NCC(N)=O)CSCC(=O)N[C@@H](Cc2ccc(O)cc2)C(=O)N(C)[C@@H](C)C(=O)N[C@@H](CC(=O)O)C(=O)N2CCC[C@H]2C(=O)N[C@@H](Cc2cnc[nH]2)C(=O)N[C@@H](CCCNC(C)=O)C(=O)N2C[C@H](O)C[C@H]2C(=O)N[C@@H](Cc2c[nH]c3ccccc23)C(=O)N[C@@H](CO)C(=O)N[C@@H](Cc2c[nH]c3ccccc23)C(=O)N1C [Example 1156] ({CH2CO}-Y[NMeA]DPH[Orn](Ac)[Hyp]WSW[NMeNle][NMeNle]ACG-NH2; thioether N-14)	0.158 to 4.71	0.385 to 6.74
CCCC[C@H]1C(=O)N(C)[C@@H](CCCC)C(=O)N[C@@H](CCCN)C(=O)N[C@H](C(=O)NCC(N)=O)CSCC(=O)N[C@@H](Cc2ccc(O)cc2)C(=O)N(C)[C@@H](C)C(=O)N[C@@H](CC(N)=O)C(=O)N2CCC[C@H]2C(=O)N[C@@H](Cc2c[nH]cn2)C(=O)N[C@@H](CC(C)C)C(=O)N2C[C@H](O)C[C@H]2C(=O)N[C@@H](Cc2c[nH]c3ccccc23)C(=O)N[C@@H](CCN)C(=O)N[C@@H](Cc2c[nH]c3ccccc23)C(=O)N1C [Example 1157] ({CH2CO}-Y[NMeA]NPHL[Hyp]W[Dab]W[NMeNle][NMeNle][Orn]CG-NH2; thioether N-14)	0.158 to 4.71	6.76 to 30.3
CCCC[C@H]1C(=O)N(C)[C@@H](CCCC)C(=O)N[C@@H](C)C(=O)N[C@H](C(=O)NCC(N)=O)CSCC(=O)N[C@@H](Cc2ccc(O)cc2)C(=O)N(C)[C@@H](C)C(=O)N[C@@H](CC(=O)O)C(=O)N2CCC[C@H]2C(=O)N[C@@H](CCN)C(=O)N[C@@H](CC(C)C)C(=O)N2C[C@H](O)C[C@H]2C(=O)N[C@@H](Cc2c[nH]c3ccccc23)C(=O)N[C@@H](CO)C(=O)N[C@@H](Cc2c[nH]c3ccccc23)C(=O)N1C [Example 1158] ({CH2CO}-Y[NMeA]DP[Dab]L[Hyp]WSW[NMeNle][NMeNle]ACG-NH2; thioether N-14)	0.158 to 4.71	0.385 to 6.74
CCCC[C@H]1C(=O)N(C)[C@@H](CCCC)C(=O)N[C@@H](CCCNC(=N)N)C(=O)N[C@H](C(=O)NCC(N)=O)CSCC(=O)N[C@@H](Cc2ccc(O)cc2)C(=O)N(C)[C@@H](C)C(=O)N[C@@H](CC(N)=O)C(=O)N2CCC[C@H]2C(=O)N[C@@H](Cc2cnc[nH]2)C(=O)N[C@@H](CCC(=O)O)C(=O)N2C[C@H](O)C[C@H]2C(=O)N[C@@H](Cc2c[nH]c3ccccc23)C(=O)N[C@@H](CO)C(=O)N[C@@H](Cc2c[nH]c3ccccc23)C(=O)N1C [Example 1159] ({CH2CO}-Y[NMeA]NPHE[Hyp]WSW[NMeNle][NMeNle]RCG-NH2; thioether N-14)	0.158 to 4.71	6.76 to 30.3
CCCC[C@H]1C(=O)N(C)[C@@H](CCCC)C(=O)N[C@@H](CN)C(=O)N[C@H](C(=O)NCC(N)=O)CSCC(=O)N[C@@H](Cc2ccc(O)cc2)C(=O)N(C)[C@@H](C)C(=O)N[C@@H](CC(N)=O)C(=O)N2CCC[C@H]2C(=O)N[C@@H](CN)C(=O)N[C@@H](CC(C)C)C(=O)N2C[C@H](O)C[C@H]2C(=O)N[C@@H](Cc2c[nH]c3ccccc23)C(=O)N[C@@H](CO)C(=O)N[C@@H](Cc2csc3ccccc23)C(=O)N1C [Example 1161] ({CH2CO}-Y[NMeA]NP[Dap]L[Hyp]WS[Bta][NMeNle][NMeNle][Dap]CG-NH2; thioether N-14)	0.158 to 4.71	0.385 to 6.74
CCCC[C@H]1C(=O)N(C)[C@@H](CCCC)C(=O)N[C@@H](CN)C(=O)N[C@H](C(=O)NCC(N)=O)CSCC(=O)N[C@@H](Cc2ccc(O)cc2)C(=O)N(C)[C@@H](C)C(=O)N[C@@H](CC(N)=O)C(=O)N2CCC[C@H]2C(=O)N[C@@H](CN)C(=O)N[C@@H](CCC(=O)O)C(=O)N2C[C@H](O)C[C@H]2C(=O)N[C@@H](Cc2c[nH]c3ccccc23)C(=O)N[C@@H](CO)C(=O)N[C@@H](Cc2csc3ccccc23)C(=O)N1C [Example 1162] ({CH2CO}-Y[NMeA]NP[Dap]E[Hyp]WS[Bta][NMeNle][NMeNle][Dap]CG-NH2; thioether N-14)	0.158 to 4.71	0.385 to 6.74
CCCC[C@H]1C(=O)N(C)[C@@H](CCCC)C(=O)N[C@@H](C)C(=O)N[C@H](C(=O)NCC(N)=O)CSCC(=O)N[C@@H](Cc2ccc(O)cc2)C(=O)N(C)[C@@H](C)C(=O)N[C@@H](CCC(=O)O)C(=O)N2CCC[C@H]2C(=O)N[C@@H](Cc2cnc[nH]2)C(=O)N[C@@H](CC(C)C)C(=O)N2CCC[C@H]2C(=O)N[C@@H](Cc2c[nH]c3ccccc23)C(=O)N[C@@H](CO)C(=O)N[C@@H](Cc2c[nH]c3ccccc23)C(=O)N1C [Example 1164] ({CH2CO}-Y[NMeA]EPHLPWSW[NMeNle][NMeNle]ACG-NH2; thioether N-14)	4.78 to 72.9	6.76 to 30.3
CCCC[C@H]1C(=O)N(C)[C@@H](CCCC)C(=O)N[C@@H](C)C(=O)N[C@H](C(=O)NCC(N)=O)CSCC(=O)N[C@@H](Cc2ccc(O)cc2)C(=O)N(C)[C@@H](C)C(=O)N[C@@H](CC(=O)O)C(=O)N2CCC[C@H]2C(=O)N[C@@H](Cc2cnc[nH]2)C(=O)N[C@@H](CC(C)C)C(=O)N2C[C@H](O)C[C@H]2C(=O)N[C@@H](Cc2c[nH]c3ccccc23)C(=O)N[C@@H](CO)C(=O)N[C@@H](Cc2c[nH]c3ccccc23)C(=O)N1C [Example 1165]	0.158 to 4.71	0.385 to 6.74
CCCC[C@H]1C(=O)N(C)[C@@H](CCCC)C(=O)N[C@@H](CCCNC(=N)N)C(=O)N[C@H](C(=O)NCC(N)=O)CSCC(=O)N[C@@H](Cc2ccc(O)cc2)C(=O)N(C)[C@@H](C)C(=O)N[C@@H](CC(=O)O)C(=O)N2CCC[C@H]2C(=O)N[C@@H](Cc2cnc[nH]2)C(=O)N[C@@H](CC(C)C)C(=O)N2C[C@H](O)C[C@H]2C(=O)N[C@@H](Cc2c[nH]c3ccccc23)C(=O)N[C@@H](CO)C(=O)N[C@@H](Cc2c[nH]c3ccccc23)C(=O)N1C [Example 1166] ({CH2CO}-Y[NMeA]DPHL[Hyp]WSW[NMeNle][NMeNle]RCG-NH2; thioether N-14)	0.158 to 4.71	0.385 to 6.74
CCCC[C@H]1C(=O)N(C)[C@@H](CCCC)C(=O)N[C@@H](CCCNC(=N)N)C(=O)N[C@H](C(=O)NCC(N)=O)CSCC(=O)N[C@@H](Cc2ccc(O)cc2)C(=O)N(C)[C@@H](C)C(=O)N[C@@H](CCC(=O)O)C(=O)N2CCC[C@H]2C(=O)N[C@@H](Cc2cnc[nH]2)C(=O)N[C@@H](CC(C)C)C(=O)N2CCC[C@H]2C(=O)N[C@@H](Cc2c[nH]c3ccccc23)C(=O)N[C@@H](CO)C(=O)N[C@@H](Cc2c[nH]c3ccccc23)C(=O)N1C [Example 1167] ({CH2CO}-Y[NMeA]EPHLPWSW[NMeNle][NMeNle]RCG-NH2; thioether N-14)	0.158 to 4.71	0.385 to 6.74
